Assay results from paper PMC5978685, “Design, Synthesis, and Evaluation of Novel Immunomodulatory Small Molecules Targeting the CD40–CD154 Costimulatory Protein-Protein Interaction” (Molecules : A Journal of Synthetic Chemistry and Natural …, 2018).
Read-outs that look alike come from different tables or passages of the source.

How the values were obtained:
CD154 (CD40L) = molecular target: T1, CD154 (CD40L) (Homo sapiens, UniProt P29965); assay: protein thermal shift (differential scanning fluorimetry), CD154; type: binding; details: 25 μM of 11, 10 μM of DRI-C21045; CD154 0.05 mg/mL
T1 construct: purchased Peprotech
T1 sequence (P29965 113-261 limits assumed): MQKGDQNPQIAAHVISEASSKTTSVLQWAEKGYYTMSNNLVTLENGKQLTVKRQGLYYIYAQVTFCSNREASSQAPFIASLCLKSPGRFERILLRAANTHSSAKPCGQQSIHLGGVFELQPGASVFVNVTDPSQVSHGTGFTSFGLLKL
Text: (§1) A protein thermal shift assay (differential scanning fluorimetry, also known as ThermoFluor assay) was used to establish whether our small-molecule probes bind to CD40 or CD154 (CD40L). This technique quantifies the shift in protein stability due to ligand binding via use of a dye whose fluorescence increases when exposed to hydrophobic surfaces, which happens as the protein unfolds exposing its normally buried hydrophobic core residues. […]
(§2) This assay was used following standard protocols as described in the literature to establish whether CD154 or CD40 is the binding partner of our compounds. Sypro orange (ThermoFisher; Waltham, MA, USA) was used as the fluorescence detection dye with an RT-PCR machine (StepOnePlus, Applied Biosystems (Foster City, CA, USA); detection on ROX channel, 575/602 nm) programmed to equilibrate samples at 25 °C for 90 s and then increase temperature to 99 °C by 0.4 °C every 24 s before taking a reading. Melting point of the protein is considered the lowest point of the first derivative plot, as calculated by the software included with the RT-PCR machine. Optimal concentrations were determined by performing a series of preliminary scans at various concentrations of protein, compound, and dye (CD154 0.05 mg/mL, CD40-Fc 0.1 mg/mL, Sypro orange 4×, 100 mM HEPES buffer, 10 μM of DRI-C21045 and 25 μM of 11). […]

CD40 = molecular target: T2, CD40 (Homo sapiens, UniProt P25942); assay: protein thermal shift (differential scanning fluorimetry), CD40; type: binding; details: 25 μM of 11, 10 μM of DRI-C21045; CD40-Fc 0.1 mg/mL
T2 construct: purchased Enzo Life Sciences
Text: as §1, §2

CD40–CD154 (CD40L) [1] = molecular target: T3, CD40–CD154 (CD40L) (Homo sapiens, UniProt P29965); parameters: method as in PMID 29024591; details: read-out: CD40–CD154 IC50 (previous work); cited from earlier work
T3 construct: purchased Enzo Life Sciences
T3 sequence (P29965 116-261 limits assumed): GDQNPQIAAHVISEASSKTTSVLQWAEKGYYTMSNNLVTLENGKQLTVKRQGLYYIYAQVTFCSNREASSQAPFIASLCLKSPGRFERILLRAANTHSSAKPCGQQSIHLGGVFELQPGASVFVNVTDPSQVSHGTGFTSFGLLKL

OX40–OX40L = molecular target: T4, OX40–OX40L (Homo sapiens, UniProt P23510); assay: cell-free ELISA-type binding inhibition assay, OX40–OX40L
T4 construct: purchased Enzo Life Sciences
T4 sequence (P23510 51-183 limits assumed): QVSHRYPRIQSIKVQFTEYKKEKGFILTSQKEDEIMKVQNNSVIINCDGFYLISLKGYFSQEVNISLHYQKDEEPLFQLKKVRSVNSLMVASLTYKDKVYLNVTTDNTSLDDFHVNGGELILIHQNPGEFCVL
Description: (§3) In parallel with the CD40–CD154 assay, the ability of these compounds to inhibit other TNFSFR–TNFSF PPIs, including OX40–OX40L, BAFFR–BAFF, and TNF-R1–TNF-α, was also assessed (Figure 3B–D).
(§4) Binding inhibition assays were performed in a 96-well cell-free format as described before. Briefly, microtiter plates (Nunc F Maxisorp, 96-well; Thermo Fisher Scientific, Waltham, MA, USA) were coated overnight at 4 °C with 100 μL/well of Fc-conjugated receptors diluted in PBS pH 7.2. This was followed by blocking with 200 μL/well of blocking solution (PBS pH 7.2, 0.05% Tween-20, 1% BSA) for 1 h at RT. Then, plates were washed twice using washing solution (PBS pH 7.4, 0.05% Tween-20) and tapped dry before the addition of the appropriate FLAG tagged ligands along with different concentrations of tested dyes diluted in binding buffer (100 mM HEPES, 0.005% BSA pH 7.2) to give a total volume of 100 μL/well. After 1 h incubation, three washes were conducted, and anti-FLAG HRP conjugate was used to detect the bound FLAG-tagged ligand. Plates were washed four times before the addition of 120 μL/well of HRP substrate TMB (3,3′,5,5′-tetramethylbenzidine) and kept in the dark for up to 15 min. The reaction was stopped using 30 μL of 1M H2SO4, and the absorbance value was read at 450 nm. The concentrations of receptors used were 0.3 μg/mL for CD40, TNF-R1, and BAFFR; 0.6 μg/mL for OX40. The concentrations of the ligands were fixed at 0.02 μg/mL for CD154 and TNF-α, 0.06 μg/mL for OX40L, and 0.03 μg/mL for BAFF. These values were selected following preliminary testing to optimize response (i.e., to produce a high-enough signal at conditions close to half-maximal response, EC50). […] To verify that inhibition is not due to colloidal aggregation, CD40 binding inhibition was also measured in the presence of the non-ionic detergent Triton-X 100 (0.01%), as recommended for the detection of such effects.
(§5) All binding inhibition and cell assays were tested in duplicate or triplicate per plates, and assays were performed as at least three independent experiments. As before, binding and cytotoxicity data were converted to percent inhibition and fitted with standard log inhibitor vs. normalized response models using nonlinear regression in GraphPad Prism (GraphPad, La Jolla, CA, USA) to establish half-maximal (median) inhibitory concentration (IC50) or median lethal concentration (LC50) values. Cell assay data were fitted with a similar model that also allowed for a variable slope using the log inhibitor vs. normalized response (variable slope) model from Prism with a Hill slope (n) shared across all compounds. Cell assays and draining lymph node data were analyzed by one-way repeated-measures analysis of variance (ANOVA) followed by Dunnett’s multiple comparison test as a post hoc test for individual differences using GraphPad Prism and a significance level of p < 0.05 for all comparisons.
(§6) Data are (counterclockwise) for human CD40–CD154 (CD40L) (A); OX40–OX40L (B); BAFFR–BAFF (C); and TNF-R1–TNFα (D) and were fitted with standard binding curves. Data are average ± SD (normalized to percent binding) for n = 3 independent experiments with duplicates for each condition.

CD40–CD154 (CD40L) [2] = molecular target: T3, CD40–CD154 (CD40L); assay: cell-free ELISA-type binding inhibition assay, CD40–CD154; details: for selectivity toward CD40–CD154 against all other PPIs tested: vs OX40–OX40L, BAFFR–BAFF, TNF-R1–TNF-α
Text: As a first assessment, the CD40–CD154 inhibitory activity of compounds 6–19 (Figure 2, Table 1) was quantified using a cell-free in vitro binding inhibition assay as described before. Data fitted with typical sigmoidal concentration dependence curves (log inhibitor versus response model in GraphPad Prism, Hill slope n = 1) are summarized in Figure 3A. […] Polymolecular conglomeration and/or aggregation is often a cause of promiscuous inhibition in screening assays. Therefore, just as in our previous work, we checked for this, and we confirmed for several compounds that inhibition due to aggregation is not the case by retesting inhibitory activity in the presence of a non-ionic detergent (Triton-X 100, 0.01%) as recommended for the detection of such effects.
as §4, §5, §6

TNF-R1–TNFα = molecular target: T5, TNF-R1–TNFα (Homo sapiens, UniProt P01375); assay: cell-free ELISA-type binding inhibition assay, TNF-R1–TNFα; details: cell-free TNF-R1–TNFα binding inhibition; read-out: TNF IC50
T5 construct: purchased Enzo Life Sciences
Description: as §3, §4, §5, §6

BAFFR–BAFF = molecular target: T6, BAFFR–BAFF (Homo sapiens, UniProt Q9Y275); assay: cell-free ELISA-type binding inhibition assay, BAFFR–BAFF
T6 construct: purchased Enzo Life Sciences
Description: as §3, §4, §5, §6

[3] = tested on: CD154-induced NF-κB activation in CD40 sensor cells; assay: CD40 sensor cell assay (HEK Blue CD40, SEAP reporter); type: cell-based, human
Text: (§7) As further confirmation of the inhibitory activity of our compounds, a cell-based assay was used with sensor cells (HEK Blue CD40) containing a secreted embryonic alkaline phosphatase (SEAP) reporter gene under the control of a promoter fused to a NF-κB binding site and transfected with CD40. […] For all tested compounds, the corresponding IC50 values are higher than those determined in the cell-free binding inhibition assay (Table 1) representing a loss of activity which is likely due to non-specific binding on account of the presence of proteins and cells in the assay, as well as hydrophobicity-related problems. Cytotoxicities were also evaluated in these same cells and at the same concentrations using a standard MTS assay to ensure that effects are present at non-toxic concentration levels.
CD40 expressing NF-κB sensor cells (HEK Blue, InvivoGen, San Diego, CA, USA) were used to assess the ability of the present compounds to block CD154-induced activation as described before. Briefly, cells were maintained in DMEM at 80% confluence for each experiment. Cells were trypsinized and re-suspended in the same medium without FBS and seeded on 96-well microtiter plates at a density of 50,000 cells/well in the absence and presence of various concentrations of compounds diluted in the same media. For ligand mediated stimulation, a concentration of recombinant human CD154 (100 ng/mL) found to induce an optimal response was maintained in the wells for this purpose. After 24 h of incubation at 37 °C, 40 μL supernatant of each well were taken and added to another 96-well microtiter plate containing 160 μL/well of QUANTI-Blue (InvivoGen). The level of SEAP was determined after 1 h of incubation at 37 °C by reading at 650 nm using a spectrophotometer. A monoclonal anti-human CD154 antibody (clone 40804, R&D Systems, Minneapolis, MN, USA) was used as a positive control at 240 nM concentration.
as §5
Figure 5 Inhibition of CD154-induced NF-κB activation in CD40 sensor cells by compounds 6, 14, 15, and 18 in a concentration-dependent manner. Tartrazine (TZ) and an anti-CD154 antibody (mAb; single dose, 240 nM) were included as negative and positive controls, respectively. Data are average ± SD (normalized to CD154-activated cells alone) for n = 2 independent experiments with duplicates for each condition.

[4] = solubilization in the in vivo dosing vehicle; type: physicochemical; details: vehicle 20% HPβCD
[5] = MTS cytotoxicity assay in HEK Blue cells; type: cell-based; details: human, HEK Blue CD40 sensor cells; HEK Blue cells, 24 h; read-out: LC50 (cytotoxicity, MTS)
Text: as §7
(§8) For the MTS assay, HEK Blue cells were cultured and prepared in the same manner as in the CD40 sensor assay. Then cells were added to a 96-well microtiter plate at a density of 50,000 cells/well in the absence or presence of various concentrations of compounds diluted in the same media, without the addition of CD154. The plate was incubated at 37 °C for 24 h. 20 µL per well of MTS, 3-(4,5-dimethylthiazol-2-yl)-5-(3-carboxymethoxyphenyl)-2-(4-sulfophenyl)-2H-tetrazolium, (Promega, Madison, WI, USA) was added to the culture after treatments, and cells were incubated at 37 °C for 4 h. Formazan levels were measured using a plate reader at 490 nm.
as §5

HEK Blue cells = assay: MTS cytotoxicity assay in HEK Blue cells; type: cell-based; details: LC50 (MTS) / NF-κB IC50 in sensor cells
Text: as §7, §8, §5

[6] = cell-free CD40–CD154 binding inhibition, read-out: CD40 IC50

T5 sequence (P01375 85-233 limits assumed): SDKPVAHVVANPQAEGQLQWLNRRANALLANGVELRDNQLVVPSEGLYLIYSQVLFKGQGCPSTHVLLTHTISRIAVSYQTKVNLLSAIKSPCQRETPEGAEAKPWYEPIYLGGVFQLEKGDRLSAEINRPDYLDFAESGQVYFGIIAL
T2 sequence (P25942 21-277): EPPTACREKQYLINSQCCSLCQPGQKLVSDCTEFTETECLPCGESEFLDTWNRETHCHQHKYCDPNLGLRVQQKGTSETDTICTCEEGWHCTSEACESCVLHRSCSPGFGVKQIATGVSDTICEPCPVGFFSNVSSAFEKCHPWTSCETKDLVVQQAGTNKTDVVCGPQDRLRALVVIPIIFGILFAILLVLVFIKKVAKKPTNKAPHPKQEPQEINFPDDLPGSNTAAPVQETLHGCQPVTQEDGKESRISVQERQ
T6 sequence (Q9Y275 134-285 limits assumed): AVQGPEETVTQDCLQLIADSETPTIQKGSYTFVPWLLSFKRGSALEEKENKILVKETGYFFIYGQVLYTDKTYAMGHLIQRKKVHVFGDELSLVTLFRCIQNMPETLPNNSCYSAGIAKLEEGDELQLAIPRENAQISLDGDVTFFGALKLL

Row | Compound | shift in melting temperature (Tm) of CD154 (CD154 (CD40L)) | shift in melting temperature (Tm) of CD40 (CD40) | IC50 (CD40–CD154 (CD40L) [1]) | IC50 (OX40–OX40L) | IC50 (CD40–CD154 (CD40L) [2]; [6]) | IC50 (CD40–CD154 (CD40L) [2]; cell-free binding inhibition assay, read-out: CD40–CD154 IC50) | IC50 (TNF-R1–TNFα) | IC50 (BAFFR–BAFF) | inhibition of CD154-induced NF-κB activation (qualitative) [3] | IC50 ([3]; Homo sapiens, CD154 100 ng/mL, 24 h) | solubility in the vehicle for in vivo dosing [4] | selectivity toward CD40–CD154 against all other PPIs tested (CD40–CD154 (CD40L) [2]) | selectivity toward CD40–CD154 against all other PPIs tested (CD40–CD154 (CD40L) [2]; listed as DRI-C21091) | CC50 at 24 h [5] | therapeutic index, TI = LC50/IC50 (HEK Blue cells)
1 | COC(=O)c1ccc(C(=O)Nc2ccc(-c3ccc(C(=O)Nc4cccc5cccc(S(=O)(=O)O)c45)cc3)cc2)cc1 [DRI-C21045, reference compound] | caused clear shifts | not for CD40 | 0.17 µM |  |  |  |  |  |  |  |  |  |  |  | 
2 | COC(=O)c1ccc(C(=O)Nc2ccc(-c3ccc(C(=O)Nc4ccc(S(=O)(=O)O)c5cccc(S(=O)(=O)O)c45)cc3)cc2)cc1 [Compound 11, 4-(4′-(4-(Methoxycarbonyl)benzamido)-[1,1′-biphenyl]-4-carboxamido)naphthalene-1,5-disulfonic acid] | caused clear shifts | not for CD40 |  | 120 µM | 60.1 µM | 60 µM | 456 µM | 540 µM |  |  |  |  |  |  | 
3 | O=C(Nc1ccc(-c2ccc(C(=O)Nc3cccc4cccc(S(=O)(=O)O)c34)cc2)cc1)c1ccc(-c2ccc([N+](=O)[O-])cc2)cc1 [Compound 14, 8-(4′-(4′-Nitro-[1,1′-biphenyl]-4-carboxamido)-[1,1′-biphenyl]-4-carboxamido)naphthalene-1-sulfonic acid] |  |  |  | 6.88 µM | 0.02 µM |  | 70.3 µM | 0.784 µM | concentration-dependent inhibition | 11.1 µM | could not be sufficiently solubilized in the vehicle | > 30 fold | more than thirty-fold | 55.6 µM | 5
